Data on five compounds can be found in ChEMBL document CHEMBL5143577, “Development of a degrader against oncogenic fusion protein FGFR3-TACC3” (Bioorg Med Chem Lett, 2022).

For experiment [1], the system named is RT-4. In words: Sniper activity at FGFR3-TACC3 in human RT4 cells assessed as decrease in FGFR3-TACC3 protein level at 30 uM after 6 hrs. In kind it is cell-based.
The subject of experiment [2] is RT-4. In words: Antiproliferative activity against human RT-4 cells expressing FGFR3-TACC3 at 3 uM measured after 72 hrs by WST assay. The experiment is classed as functional, cell-based.
Experiment [3] has as its system RT-4. Description: Sniper activity at FGFR3-TACC3 in human RT4 cells assessed as decrease in FGFR3-TACC3 protein level at 3 uM after 6 hrs. In kind it is cell-based.
Experiment [4] relates to RT-4. In words: Sniper activity at FGFR3-TACC3 in human RT4 cells assessed as decrease in FGFR3-TACC3 protein level at 3 uM after 6 hrs in presence of siRNA XIAP. In kind it is cell-based.

The structures appear in SMILES notation. The source made the active and inactive calls. The calls are words filed in the database; no cut-off is given here.

Regarding `CC(C)CNc1ccnc(NCc2csc(-c3ccc(C(=O)NCCOCCOCCOCCNC(=O)[C@H](CC(C)C)NC(=O)[C@@H](O)[C@H](N)Cc4ccccc4)cc3)n2)n1`, the result in experiment [1] was Active.

With `CN[C@@H](C)C(=O)N[C@H](C(=O)N1CCC[C@H]1c1nc(C(=O)c2cccc(OCCOCCOCCNC(=O)c3ccc(-c4nc(CNc5nccc(NCC(C)C)n5)cs4)cc3)c2)cs1)C1CCCCC1`, the result in experiment [2], in experiment [3] and in experiment [4] was Active.

Turning to `CN[C@@H](C)C(=O)N[C@H](C(=O)N1C[C@@H](Oc2cccc(OCCOCCOCCOCCNC(=O)c3ccc(-c4nc(CNc5nccc(NCC(C)C)n5)cs4)cc3)c2)C[C@H]1C(=O)N[C@@H]1CCCc2ccccc21)C1CCCCC1`, in experiment [3], the outcome was Active.

As for `CN[C@@H](C)C(=O)N[C@H](C(=O)N1CCC[C@H]1c1nc(C(=O)c2cccc(OCCOCCOCCOCCNC(=O)c3ccc(-c4nc(CNc5nccc(NCC(C)C)n5)cs4)cc3)c2)cs1)C1CCCCC1`, the outcome in experiment [3] was Active.

On to `CN[C@@H](C)C(=O)N[C@H](C(=O)N1C[C@@H](Oc2cccc(OCCOCCOCCOCCOCCNC(=O)c3ccc(-c4nc(CNc5nccc(NCC(C)C)n5)cs4)cc3)c2)CC1C(=O)N[C@@H]1CCCc2ccccc21)C1CCCCC1` (some centres not stated), for which the outcome in experiment [3] was Active.
